Data from patent USRE46511E1, “Fused pyrimidine derivatives for inhibition of tyrosine kinase activity” (HANMI SCIENCE CO., LTD., priority 2010, dated 2017).
Like-named read-outs stand apart in the source and are kept apart here.

Assays:
Format in all cases: cell-based
[1] = test system: NCI-H1975 (EGFR L858R/T790M); experiment: Inhibition test for growth of cancer cell expressing EGFR (MTS), NCI-H1975; conditions: Homo sapiens, read-out: GI50 NCI-H1975 EGFR L858R/T790M
Description: (§1) A431 cell line was incubated in a high-glucose DMEM (Dulbecco's Modified Eagle's Medium) supplemented with 10% fetal bovine serum (FBS) and 1% penicillin/streptomycin (Gibco BRL), and HCC827 and NCI-H1975 cell lines were incubated in an RPMI medium supplemented with 10% FBS, 1% penicillin/streptomycin and 1% sodium pyruvate.
(§2) The cancer cell lines stored in a liquid nitrogen tank were each quickly thawed at 37° C., and centrifuged to remove the medium. The resulting cell pellet was mixed with a culture medium, incubated in a culture flask at 37° C. under 5% CO2 for 2 to 3 days, and the medium was removed. The remaining cells were washed with DPBS (Dulbecco's Phosphate Buffered Saline) and separated from the flask by using Tripsin-EDTA. […] 100 μl of the diluted cell solution was added to each well of a 96-well plate, and incubated at 37° C. under 5% CO2 for 1 day.
(§3) In case that the test compound was not soluble in DMSO, 1% HCl was added thereto and treated in a 40° C. water bath for 30 mins until a complete dissolution was attained. The DMSO solution containing test compound was diluted with a culture medium to a final concentration of 100 μM, and then diluted 10 times serially to 10^−6 μM (a final concentration of DMSO was less than 1%).
(§4) The medium was removed from each well of the 96-well plate. And then, 100 μl of a test compound solution was added to each well holding the cultured cells, and the plate was incubated at 37° C. under 5% CO2 for 72 hours (except that NCI-H1975 cells were incubated for 48 hours). After removing the medium from the plate, 50 μA of 10% trichloroacetic acid was added to each well, and the plate was kept at 4° C. for 1 hour to fix the cells to the bottom of the plate. The added 10% trichloroacetic acid solution was removed from each well, the plate was dried, 100 μA of an SRB (Sulforhodamine-B) dye solution at a concentration of 0.4% dissolved in 1% acetic acid was added thereto, and the resulting mixture was reacted for 10 mins at room temperature. After removing the dye solution, the plate was washed with water, and well dried. When the dye solution was not effectively removed by water, 1% acetic acid was used. 150 μA of 10 mM trisma base was added to each well, and the absorbance at 540 nm wavelength was determined with a microplate reader.

[2] = test system: A431 (EGFR WT); experiment: Inhibition test for growth of cancer cell expressing EGFR (SRB), A431; conditions: Homo sapiens, read-out: GI50 A431 EGFR WT;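 note: cells in 96-well plates exposed to tenfold serial dilutions from 100 µM down to 10^−6 µM, DMSO under 1%, SRB staining read as absorbance at 540 nm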
Description: as §1, §2, §3, §4

[3] = test system: HCC827 (EGFR DelE746_A750); experiment: Inhibition test for growth of cancer cell expressing EGFR (SRB), HCC827; conditions: Homo sapiens, HCC827, 72 h, read-out: GI50 HCC827 EGFR DelE746_A750;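 note: cells in 96-well plates exposed to tenfold serial dilutions from 100 µM, fixed with trichloroacetic acid, SRB-stained, absorbance read at 540 nm, DMSO under 1%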
Description: as §1, §2, §3, §4

[4] = A-431, A431 cells, 72 hours, SRB

Structure (SMILES) | GI50 ([1]; NCI-H1975 cells, 48 hours, MTS) [µM] | GI50 [2, 4] [µM] | GI50 ([3]; HCC827 cells, 72 hours, SRB) [µM] | GI50 ([1]; NCI-H1975, 48 h) [µM] | GI50 ([2]; A-431, 72 h) [µM] | GI50 [3] [µM]
C=CC(=O)Nc1cccc(Oc2nc(Nc3ccc(OCCN4CCOCC4)cc3)nc3ccsc23)c1 [Example 65] | < 0.05 | > 1 | < 0.05 | – | – | –
C=CC(=O)Nc1cccc(Oc2nc(Nc3ccc(CN4CCCC4)cc3)nc3ccsc23)c1 [Example 176] | < 0.05 | > 1 | < 0.05 | – | – | –
C=CC(=O)Nc1cccc(Oc2nc(Nc3ccc(C4CCN(C)CC4)cc3)nc3ccsc23)c1 [Example 52] | < 0.05 | > 1 | < 0.05 | – | – | –
C=CC(=O)Nc1ccc(F)c(Oc2nc(Nc3ccc(N4CCN(C)CC4)cc3)nc3ccsc23)c1 [Example 165] | < 0.05 | > 1 | < 0.05 | – | – | –
C=CC(=O)Nc1cccc(Oc2nc(Nc3ccc(N4CCS(=O)(=O)CC4)cc3)nc3ccsc23)c1 [Example 32] | < 0.05 | > 1 | < 0.05 | – | – | –
C=CC(=O)Nc1cccc(Oc2nc(Nc3ccc(N4CCN(CC)CC4)cn3)nc3ccsc23)c1 [Example 168] | < 0.05 | > 1 | < 0.05 | – | – | –
C=CC(=O)Nc1cccc(Oc2nc(Nc3ccc(CP(=O)(OC)OC)cc3)nc3ccsc23)c1 [Example 189] | – | – | – | < 0.05 | > 1 | < 0.05
C=CC(=O)Nc1cccc(Oc2nc(Nc3ccc(N4CCN(CC)CC4)cc3)nc3ccsc23)c1 [Example 10] | < 0.05 | 0.1 to 1 | < 0.05 | – | – | –
C=CC(=O)Nc1cccc(Oc2nc(Nc3ccc(N4CCN(C5CCCCC5)CC4)cc3)nc3ccsc23)c1 [Example 13] | < 0.05 | 0.1 to 1 | < 0.05 | – | – | –
C=CC(=O)Nc1cccc(Oc2nc(Nc3ccc4c(c3)CCN4C(=O)CN(C)C)nc3ccsc23)c1 [Example 109] | < 0.05 | > 1 | < 0.05 | – | – | –
C=CC(=O)Nc1cccc(Oc2nc(Nc3ccc(S(=O)(=O)N4CCN(CC)CC4)cc3)nc3ccsc23)c1 [Example 76] | 0.05 to 0.1 | > 1 | < 0.05 | – | – | –
C=CC(=O)Nc1cccc(Oc2nc(Nc3ccc(N4CCN(S(=O)(=O)CC)CC4)cc3)nc3ccsc23)c1 [Example 24] | 0.05 to 0.1 | > 1 | < 0.05 | – | – | –
C=CC(=O)Nc1cccc(Oc2nc(Nc3ccc(N4CCSCC4)cc3)nc3ccsc23)c1 [Example 30] | < 0.05 | > 1 | 0.1 to 1 | – | – | –
CS(=O)(=O)CCNCc1ccc(-c2ccc3ncnc(Nc4ccc(OCc5cccc(F)c5)c(Cl)c4)c3c2)o1 [Lapatinib, lapatinib, reference compound] | – | – | – | > 1 | 0.05 to 0.1 | 0.1 to 1
C=CC(=O)Nc1cccc(Oc2nc(Nc3ccc4c(c3)NCCOC4)nc3ccsc23)c1 [Example 107] | < 0.05 | > 1 | < 0.05 | – | – | –
C=CC(=O)Nc1cccc(Oc2nc(Nc3ccc(N4CCN(S(C)(=O)=O)CC4)c(F)c3)nc3ccsc23)c1 [Example 120] | < 0.05 | > 1 | < 0.05 | – | – | –
C=CC(=O)Nc1cccc(Oc2nc(Nc3ccc(N4CCN(C)CC4)cn3)nc3ccsc23)c1 [Example 167, N-(3-(2-(5-(4-methylpiperazin-1-yl)piridin-2-ylamino)thieno[3,2-d]pyrimidin-4-yloxy)phenyl)acrylamide] | < 0.05 | > 1 | < 0.05 | – | – | –
C=CC(=O)Nc1cccc(Oc2nc(Nc3ccc(N4CCNCC4)cc3)nc3ccsc23)c1 [Example 158, N-(3-(2-(4-(piperazin-1-yl)phenylamino)-thieno[3,2-d]pyrimidine-4-yloxy)-phenyl)-acrylamide] | 0.1 to 1 | > 1 | < 0.05 | – | – | –
C=CC(=O)Nc1cccc(Oc2nc(Nc3ccc(N4CCNCC4)c(Cl)c3)nc3ccsc23)c1 [Example 159] | < 0.05 | > 1 | < 0.05 | – | – | –
C=CC(=O)Nc1cccc(Oc2nc(Nc3ccc(CN4CCCCC4)cc3)nc3ccsc23)c1 [Example 178] | < 0.05 | > 1 | < 0.05 | – | – | –

Structure (SMILES) | GI50 ([1]; NCI-H1975 cells, 48 hours, MTS) [µM] | GI50 [2, 4] [µM] | GI50 ([3]; HCC827 cells, 72 hours, SRB) [µM] | GI50 ([1]; NCI-H1975, 48 h) [µM] | GI50 ([2]; A-431, 72 h) [µM] | GI50 [3] [µM]
C=CC(=O)Nc1cccc(Oc2nc(Nc3ccc(N4CCN(S(C)(=O)=O)CC4)cc3)nc3ccsc23)c1 [Example 23] | < 0.05 | > 1 | 0.05 to 0.1 | – | – | –
C=CC(=O)Nc1cccc(Oc2nc(Nc3ccc(N4CCN(C)CC4)cc3F)nc3ccsc23)c1 [Example 4] | 0.05 to 0.1 | > 1 | 0.05 to 0.1 | – | – | –
C=CC(=O)Nc1cccc(Oc2nc(Nc3ccc(CN4CCN(CC5CC5)CC4)cc3)nc3ccsc23)c1 [Example 185] | < 0.05 | > 1 | < 0.05 | – | – | –
C=CC(=O)Nc1cccc(Oc2nc(Nc3ccc(CCN4CCN(S(=O)(=O)C=C)CC4)cc3)nc3ccsc23)c1 [Example 100] | < 0.05 | > 1 | < 0.05 | – | – | –
C=CC(=O)Nc1cccc(Oc2nc(Nc3ccc(C4CCCN(C)C4)c(F)c3)nc3ccsc23)c1 (stereo not drawn) [Example 128] | < 0.05 | > 1 | < 0.05 | – | – | –
C=CC(=O)Nc1cccc(Oc2nc(Nc3ccc(N4CCN(C)CC4)c(C)c3)nc3ccsc23)c1 [Example 8] | < 0.05 | > 1 | < 0.05 | – | – | –
C=CC(=O)Nc1cccc(Oc2nc(Nc3ccc(N4CC[S+]([O-])CC4)cc3)nc3ccsc23)c1 [Example 31] | < 0.05 | > 1 | < 0.05 | – | – | –
C=CC(=O)Nc1cccc(Oc2nc(Nc3ccc(N4CCC(N5CCOCC5)CC4)c(F)c3)nc3ccsc23)c1 [Example 126] | < 0.05 | – | < 0.05 | – | – | –
C=CC(=O)Nc1cccc(Oc2nc(Nc3ccc(NC(=O)CCN4CCCC4)cc3)nc3ccsc23)c1 [Example 92] | < 0.05 | – | < 0.05 | – | – | –
C=CC(=O)Nc1cccc(Oc2nc(Nc3ccc(N4CCN(C(=O)N5CCOCC5)CC4)cc3)nc3ccsc23)c1 [Example 22] | 0.05 to 0.1 | – | < 0.05 | – | – | –
C=CC(=O)Nc1cccc(Nc2nc(Nc3ccc(CN4CCCCC4)cc3)nc3ccsc23)c1 [Example 221] | < 0.05 | – | < 0.05 | – | – | –
C=CC(=O)Nc1cccc(Oc2nc(Nc3ccc4c(ccn4C)c3)nc3ccsc23)c1 [Example 111] | < 0.05 | – | 0.05 to 0.1 | – | – | –
C=CC(=O)Nc1cccc(Oc2nc(Nc3ccc(CCS(C)(=O)=O)cc3)nc3ccsc23)c1 [Example 97] | < 0.05 | – | 0.05 to 0.1 | – | – | –
C=CC(=O)Nc1cccc(Oc2nc(Nc3ccc(NC(=O)N4CCN(C)CC4)c(F)c3)nc3ccsc23)c1 [Example 201] | 0.05 to 0.1 | – | < 0.05 | – | – | –
C=CC(=O)Nc1cccc(Oc2nc(Nc3ccc(N4CCN(CCF)CC4)cc3)nc3ccsc23)c1 [Example 14] | 0.05 to 0.1 | – | < 0.05 | – | – | –
C=CC(=O)Nc1cccc(Oc2nc(Nc3ccc(C(=O)NC)cc3)nc3ccsc23)c1 [Example 78] | 0.05 to 0.1 | – | 0.05 to 0.1 | – | – | –
C=CC(=O)Nc1cccc(Oc2nc(Nc3ccc(C4CCN(C)CC4)c(F)c3)nc3ccoc23)c1 [Example 235] | < 0.05 | – | < 0.05 | – | – | –
C=CC(=O)Nc1cccc(Oc2nc(Nc3ccc4c(c3)OCCO4)nc3ccsc23)c1 [Example 106] | < 0.05 | – | 0.05 to 0.1 | – | – | –
C=CC(=O)Nc1cccc(Oc2nc(Nc3ccc(N4CCN(S(=O)(=O)N(C)C)CC4)cc3)nc3ccsc23)c1 [Example 25] | 0.05 to 0.1 | – | 0.05 to 0.1 | – | – | –
